Measured values reported in ChEMBL document CHEMBL3045060, “Synthesis of some urea and thiourea derivatives of naphtha[1,2-d]thiazol-2-amine as anti-Parkinsonian agents that cause neuroprotection against haloperidol-induced oxidative stress in mice” (2009).

Key:
Type in all cases: functional
Mus musculus [1] = test: Neuroprotective activity in Mus musculus Swiss albino (mouse) model assessed as reduction in haloperidol-induced catalepsy at 100 mg/kg, ip administered 30 min before haloperidol challenge measured for 30 to 180 min; design: scale not given: the % may be the effect or the level left; conditions: route intraperitoneal
Mus musculus [2] = test: Neuroprotective activity in haloperidol-induced catalepsy Mus musculus Swiss albino (mouse) model assessed as mean cumulative descent time at 100 mg/kg, po administered 30 min before haloperidol challenge (reference value: 33 +/- 1.34 min)
Mus musculus [3] = test: Neuroprotective activity in haloperidol-induced catalepsy Mus musculus Swiss albino (mouse) model assessed as mean descent time at 100 mg/kg, po administered 30 min before haloperidol challenge measured at 30 min post challenge
Mus musculus [4] = test: Neuroprotective activity in haloperidol-induced catalepsy Mus musculus Swiss albino (mouse) model assessed as mean descent time at 100 mg/kg, po administered 30 min before haloperidol challenge measured at 60 min post challenge
Mus musculus [5] = test: Neuroprotective activity in haloperidol-induced catalepsy Mus musculus Swiss albino (mouse) model assessed as mean descent time at 100 mg/kg, po administered 30 min before haloperidol challenge measured at 90 min post challenge
Mus musculus [6] = test: Neuroprotective activity in haloperidol-induced catalepsy Mus musculus Swiss albino (mouse) model assessed as mean descent time at 100 mg/kg, po administered 30 min before haloperidol challenge measured at 120 min post challenge
Mus musculus [7] = test: Neuroprotective activity in haloperidol-induced catalepsy Mus musculus Swiss albino (mouse) model assessed as mean descent time at 100 mg/kg, po administered 30 min before haloperidol challenge measured at 150 min post challenge
Mus musculus [8] = test: Neuroprotective activity in haloperidol-induced catalepsy Mus musculus Swiss albino (mouse) model assessed as mean descent time at 100 mg/kg, po administered 30 min before haloperidol challenge measured at 180 min post challenge

SMILES	Activity (Mus musculus [1]) [%]	Time (Mus musculus [2]) [min]	Time (Mus musculus [3]) [s]	Time (Mus musculus [4]) [s]	Time (Mus musculus [5]) [s]	Time (Mus musculus [6]) [s]	Time (Mus musculus [7]) [s]	Time (Mus musculus [8]) [s]
S=C(Nc1nc2c(ccc3ccccc32)s1)Nc1ccccc1Br	30.96	18.1	83	160	189	207	223	226
Cc1ccccc1NC(=O)Nc1nc2c(ccc3ccccc32)s1	47.64	13.9	71	116	138	166	170	172
O=C(Nc1nc2c(ccc3ccccc32)s1)Nc1ccccc1Br	38.74	16.1	77	131	145	197	219	200
Cc1ccc(NC(=S)Nc2nc3c(ccc4ccccc43)s2)cc1	47.97	13.8	72	114	136	161	173	172
S=C(Nc1ccccc1)Nc1nc2c(ccc3ccccc32)s1	44.63	14.7	65	129	151	178	174	182
Fc1ccccc1NC(=S)Nc1nc2c(ccc3ccccc32)s1	38.35	16.2	57	143	152	183	206	234
O=C(Nc1nc2c(ccc3ccccc32)s1)Nc1ccccc1Cl	37.37	16.5	59	141	159	188	211	232
S=C(Nc1ccc(Br)cc1)Nc1nc2c(ccc3ccccc32)s1	35.27	17	57	139	161	222	223	220
N[C@@H](Cc1ccc(O)c(O)c1)C(=O)O [LEVODOPA]	65.64	9.3	32	49	99	119	122	137
O=C(Nc1ccc(Br)cc1)Nc1nc2c(ccc3ccccc32)s1	37.76	16.4	82	123	156	191	214	218
COc1cc(NC(=O)Nc2nc3c(ccc4ccccc43)s2)cc(OC)c1OC	70.29	8.12	29	68	85	89	107	109
O=[N+]([O-])c1ccc(NC(=S)Nc2nc3c(ccc4ccccc43)s2)cc1	32.13	17.8	77	178	199	201	207	208
Cc1ccc(NC(=O)Nc2nc3c(ccc4ccccc43)s2)cc1	48.56	13.7	69	113	137	161	168	171
Fc1ccc(NC(=S)Nc2nc3c(ccc4ccccc43)s2)cc1	34.95	17.1	43	98	167	246	232	241
COc1ccc(NC(=S)Nc2nc3c(ccc4ccccc43)s2)cc1	58.05	11.2	44	112	116	128	129	145
S=C(Nc1nc2c(ccc3ccccc32)s1)Nc1ccccc1Cl	39.14	16.1	69	156	173	190	189	186
S=C(Nc1ccc(Cl)cc1)Nc1nc2c(ccc3ccccc32)s1	27.88	18.9	92	169	198	216	232	228
O=C(Nc1ccc(F)cc1)Nc1nc2c(ccc3ccccc32)s1	30.3	18.3	84	159	196	207	226	226
O=C(Nc1ccc(Oc2ccccc2)cc1)Nc1nc2c(ccc3ccccc32)s1	55.56	11.9	76	110	119	132	135	140
Cc1ccccc1NC(=S)Nc1nc2c(ccc3ccccc32)s1	49.87	13.3	68	110	138	157	160	166
O=C(Nc1ccccc1)Nc1nc2c(ccc3ccccc32)s1	44.44	14.7	72	132	156	174	172	176
COc1ccc(NC(=O)Nc2nc3c(ccc4ccccc43)s2)cc1	58.51	11.1	41	99	122	131	136	138
O=C(Nc1nc2c(ccc3ccccc32)s1)Nc1cc(C(F)(F)F)ccc1Cl	51.37	12.9	67	114	141	156	150	148
O=C(Nc1ccc([N+](=O)[O-])cc1)Nc1nc2c(ccc3ccccc32)s1	31.28	18.1	51	113	176	229	245	269
O=C(Nc1ccc(Cl)cc1)Nc1nc2c(ccc3ccccc32)s1	38.61	16.2	78	127	171	202	199	194
O=C(Nc1nc2c(ccc3ccccc32)s1)Nc1ccccc1[N+](=O)[O-]	72.05	7.67	19	54	57	87	98	145
O=C(Nc1nc2c(ccc3ccccc32)s1)Nc1ccccc1F	29.12	18.6	57	118	188	236	245	272
